Laboratory results published in patent US10806794B2, “Protease inhibitors having enhanced features” (priority 2008, dated 2020).
Where two headings read alike, the source gives them in different places.

Key:
[1] = target: recombinant HIV-1 protease (Human immunodeficiency virus type 1 group M subtype B (isolate HXB2) (HIV-1), UniProt P04585); assay: Enzyme inhibition of purified HIV-1 protease (SensoLyte 520 HIV-Protease Assay Kit); type: biochemical; details: read-out: IC50 ± SD
Method in brief: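 PEG-PI conjugates and parent PIs were tested against recombinant HIV-1 protease. Activity was followed as fluorescence from cleavage of a quenched substrate carrying the p17/p24 Pr^gag cleavage site.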

[2] = system: HIV-1RF; assay: Anti-HIV cytoprotection in CEM-SS cells infected with HIV-1RF (XTT); type: cell-based; details: six days, XTT; read-out: CEM-SS/HIV-1RF EC50 ± SD
Description: To evaluate whether conjugated protease inhibitors retain the ability to protect against HIV-1 infection, CEM-SS cells infected with the RF strain of HIV-1 were treated with test compounds for six days, and then cell viability was monitored using the tetrazolium dye XTT. […] A value for Therapeutic Index (TI) was calculated as TC50/EC50.

[3] = system: HIV-1BaL; assay: HIV-1 p24 levels after infection of fresh human monocyte/macrophages; type: cell-based; details: seven days, p24; read-out: Monocyte/HIV-1BaL EC50
Description: Mononuclear cells were isolated from fresh human peripheral blood cells by Ficoll-Hypaque density gradient by centrifugation at 600 g for 30 minutes. Banded peripheral blood mononuclear cells (PBMCs) were aspirated from the resulting interface and washed with phosphate buffered saline by low speed centrifugation. […] Cells were allowed to attach for 2 to 12 h at 37° C., then washed with Dulbecco's phosphate buffered saline (DPBS). Monocyte-macrophage monolayer formation was induced by incubation in growth medium (RPMI 1640 medium supplemented with 10% fetal bovine serum, 2 mmol/L L-glutamine, 100 Units/mL penicllin and 10 μg/mL streptomycin) for 7 days. Residual PBMCs were removed by washing the cell monolayers with DPBS. After washing, test compound diluted in growth medium was added to cells. Immediately following test compound addition, HIV-1 virus was added to the cells at multiplicity of infection (MOI)=0.05-0.10. After 7 days in culture, HIV-1 replication was quantified by ELISA measurement of cell-free HIV-1 viral capsid protein (p24) in the tissue culture supernatant of treated monocyte-macrophage monolayers. ELISA to quantify p24 was performed according to manufacturer's instructions (Perkin Elmer, Waltham, Mass.). The quantity of free HIV-1 p24 antigen in the sample was determined by comparing its absorbance at 490 nm to that of control standards.
(§1) Fresh human monocytes were infected with the BaL strain of HIV-1 in the presence of test compounds. After seven days in culture, HIV-1 replication was evaluated by measurement of HIV-1 viral capsid protein (p24) in the tissue culture supernatant (Table 7). […] A TI was calculated as described above using TC50 values derived from cell toxicity data in response to test compounds in the absence of viral infection.

[4] = system: human monocytes; assay: Toxicity in human monocytes in the absence of viral infection
Description: as §1

[5] = system: Caco-2 cells; assay: Bi-directional permeability in Caco-2 monolayers; details: for Efflux ratio (B→A/A→B): Caco-2 monolayers; for A→B, ×10^−6: human, Caco-2
Description: Absorption properties of various compounds were measured using bi-directional permeability assays in Caco-2 cells. […] The efflux ratio is calculated as the ratio of the Papp(B→A)/Papp(A→B).

[6] = system: cynomolgus monkey hepatocytes; assay: Metabolic stability in cynomolgus monkey hepatocytes; type: in vitro ADME; details: 0.1 uM
[7] = Metabolic stability in rat liver microsomes; type: in vitro ADME
Description: Metabolic stability of test compounds was studied in rat liver microsomes.

[8] = in vitro; type: in vitro ADME; details: dog, microsomes
Description: Metabolic stability of test compounds was studied in dog liver microsomes.

[9] = in vitro; type: in vitro ADME; details: monkey, microsomes
Description: Metabolic stability of test compounds was studied in monkey liver microsomes.

[10] = system: dog plasma proteins; assay: Plasma protein binding by equilibrium dialysis, dog plasma; type: in vitro ADME; details: fraction unbound
Description: In assays to estimate binding of test compounds to plasma proteins, test compound solutions (5 μM) are prepared in buffer and species-specific plasma (final DMSO concentration 0.5%). The plasma-containing solution is added to one side of the membrane of an equilibrium dialysis system, and the plasma-free is added to the other side. Dialysis was allowed to reach equilibrium by incubation for two hours at 37° C. The concentration of compound on both sides of the membrane was measured using LC-MS/MS.

[11] = target: hERG (Homo sapiens (Human), UniProt Q12809); assay: hERG current (IKr) in HEK-293 cells, whole-cell patch clamp; type: cell-based; details: for Mean % inhibition ± SEM (Block of hERG at 0.1 Hz): HEK-293 cells; for IC50: hERG current in HEK-293 cells, whole-cell patch clamp, 0.1 Hz, read-out: IC50 (Block of hERG at 0.1 Hz)
hERG, sequence (Q12809 whole entry): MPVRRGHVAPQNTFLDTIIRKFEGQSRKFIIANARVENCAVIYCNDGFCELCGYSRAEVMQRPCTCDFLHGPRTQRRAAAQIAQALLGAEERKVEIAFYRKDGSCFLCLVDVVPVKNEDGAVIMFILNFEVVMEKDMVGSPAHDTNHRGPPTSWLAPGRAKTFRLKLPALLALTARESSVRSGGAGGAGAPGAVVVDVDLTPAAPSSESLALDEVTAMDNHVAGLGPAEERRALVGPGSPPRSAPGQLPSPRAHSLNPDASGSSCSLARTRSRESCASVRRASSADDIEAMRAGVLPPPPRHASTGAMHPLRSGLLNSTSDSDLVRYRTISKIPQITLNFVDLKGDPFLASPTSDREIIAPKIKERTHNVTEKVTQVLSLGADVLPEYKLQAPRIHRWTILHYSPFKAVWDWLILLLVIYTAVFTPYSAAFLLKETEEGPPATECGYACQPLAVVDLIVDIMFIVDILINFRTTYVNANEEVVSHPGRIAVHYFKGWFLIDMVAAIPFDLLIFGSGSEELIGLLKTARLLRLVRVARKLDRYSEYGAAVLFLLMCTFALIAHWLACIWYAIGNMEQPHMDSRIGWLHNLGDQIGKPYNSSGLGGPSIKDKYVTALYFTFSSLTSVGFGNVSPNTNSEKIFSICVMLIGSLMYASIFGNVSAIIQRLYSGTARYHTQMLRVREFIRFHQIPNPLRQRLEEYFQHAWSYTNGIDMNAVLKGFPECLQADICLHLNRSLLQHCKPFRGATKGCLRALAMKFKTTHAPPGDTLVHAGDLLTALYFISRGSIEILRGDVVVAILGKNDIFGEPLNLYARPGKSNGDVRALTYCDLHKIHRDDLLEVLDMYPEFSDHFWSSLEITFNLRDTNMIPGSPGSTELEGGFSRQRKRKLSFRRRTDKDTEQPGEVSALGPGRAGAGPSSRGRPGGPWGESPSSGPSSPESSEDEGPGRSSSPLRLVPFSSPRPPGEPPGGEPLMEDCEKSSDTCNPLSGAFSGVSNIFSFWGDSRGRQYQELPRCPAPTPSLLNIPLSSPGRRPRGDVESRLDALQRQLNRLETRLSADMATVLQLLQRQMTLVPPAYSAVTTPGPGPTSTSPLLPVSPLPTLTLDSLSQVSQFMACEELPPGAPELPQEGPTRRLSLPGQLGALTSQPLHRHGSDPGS
Description: Currents were measured using the whole-cell variant of the patch clamp method. Glass pipettes were produced with tip openings of […] for K current recordings. Pipette tip resistance was approximately 1.0 to 2.0 MΩ when filled with K internal solutions (130 mM KCl, 5 mM MgCl2, 10 mM HEPES, 5 mM EGTA, 5 mM ATP-Na2, pH7.2). An Axopatch 1-B amplifier (Axon Instruments, Foster City, Calif.) was used for whole-cell voltage clamping. Voltage clamp pulses were controlled by pClamp software (ver 9.2, Axon Instruments).
After rupture of the cell membrane, current kinetics and amplitudes were allowed to stabilize as the cell was dialyzed with internal solution and paced at 0.1 Hz (−75 mV; 500 msec, +10 mV; 500 msec, −40 mV; typically 2-4 minutes). Currents were considered stable if the currents elicited by a series of voltage pulses given at 0.1 Hz were superimposed. Peak hERG current was measured as the maximum outward deflection of the tail current elicited upon return to −40 mV.
Data are presented in Table 19 as the percent reduction of current amplitude. This was measured as current reduction after a steady-state effect had been reached in the presence of drug relative to current amplitude before drug was introduced (control). Each cell served as its own control.

[12] = target: CYP2C9 (Homo sapiens (Human), UniProt P11712); details: microsomes
CYP2C9, sequence (P11712 whole entry): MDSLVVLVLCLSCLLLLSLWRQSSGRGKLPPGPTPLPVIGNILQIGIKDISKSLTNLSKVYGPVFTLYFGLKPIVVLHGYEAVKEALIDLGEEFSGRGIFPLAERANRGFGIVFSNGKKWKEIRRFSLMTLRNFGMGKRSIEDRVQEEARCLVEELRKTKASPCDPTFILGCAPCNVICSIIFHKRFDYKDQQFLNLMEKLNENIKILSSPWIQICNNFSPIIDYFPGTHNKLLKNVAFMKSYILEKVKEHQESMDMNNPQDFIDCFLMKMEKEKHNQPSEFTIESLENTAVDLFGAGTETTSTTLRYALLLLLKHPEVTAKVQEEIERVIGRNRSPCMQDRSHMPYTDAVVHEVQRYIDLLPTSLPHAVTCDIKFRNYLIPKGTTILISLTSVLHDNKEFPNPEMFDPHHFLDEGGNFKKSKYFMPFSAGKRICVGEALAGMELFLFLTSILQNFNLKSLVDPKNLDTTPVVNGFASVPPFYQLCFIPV

[13] = target: CYP3A4 (Homo sapiens (Human), UniProt P08684); assay: CYP450 inhibition in human liver microsomes: CYP3A4;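 further: incubation at 37 °C started by adding 1 mM NADPH, with formation of the probe metabolite measured via LC-MS/MS or fluorescent detection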
CYP3A4, sequence (P08684 whole entry): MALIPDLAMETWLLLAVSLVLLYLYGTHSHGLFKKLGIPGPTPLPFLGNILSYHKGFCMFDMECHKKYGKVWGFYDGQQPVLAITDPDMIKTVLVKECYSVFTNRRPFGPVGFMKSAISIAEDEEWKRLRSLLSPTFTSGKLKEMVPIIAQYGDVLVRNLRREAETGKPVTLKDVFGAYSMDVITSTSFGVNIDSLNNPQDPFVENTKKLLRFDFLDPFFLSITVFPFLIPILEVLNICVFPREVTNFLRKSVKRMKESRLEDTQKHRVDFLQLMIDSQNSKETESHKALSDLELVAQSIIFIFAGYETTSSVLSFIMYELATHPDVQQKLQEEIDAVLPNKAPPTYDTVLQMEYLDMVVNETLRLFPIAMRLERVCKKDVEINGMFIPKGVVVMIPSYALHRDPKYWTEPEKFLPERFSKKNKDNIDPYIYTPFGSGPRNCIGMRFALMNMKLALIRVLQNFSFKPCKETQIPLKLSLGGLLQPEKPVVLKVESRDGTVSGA

[14] = target: CYP2D6 (Homo sapiens (Human), UniProt P10635); assay: CYP450 inhibition in human liver microsomes: CYP2D6; details: read-out: CYP2D6 IC50 Dextromethorphan; probe substrate dextromethorphan
CYP2D6, sequence (P10635 whole entry): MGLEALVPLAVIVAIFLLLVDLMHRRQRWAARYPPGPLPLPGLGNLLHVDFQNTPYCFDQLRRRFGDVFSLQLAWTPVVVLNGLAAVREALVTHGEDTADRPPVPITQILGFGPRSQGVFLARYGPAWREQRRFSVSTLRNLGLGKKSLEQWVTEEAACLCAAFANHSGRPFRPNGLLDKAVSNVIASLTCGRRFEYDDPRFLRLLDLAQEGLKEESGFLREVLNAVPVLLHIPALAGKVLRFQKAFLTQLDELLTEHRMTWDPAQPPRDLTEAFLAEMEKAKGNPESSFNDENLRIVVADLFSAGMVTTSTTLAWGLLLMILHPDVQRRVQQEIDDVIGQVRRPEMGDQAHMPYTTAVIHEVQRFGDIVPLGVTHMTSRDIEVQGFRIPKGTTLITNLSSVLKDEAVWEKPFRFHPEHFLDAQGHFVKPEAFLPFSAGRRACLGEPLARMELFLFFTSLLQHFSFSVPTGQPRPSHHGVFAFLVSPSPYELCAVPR

[15] = read-out: CYP3A4 IC50 Midazolam, probe substrate midazolam
[16] = read-out: CYP3A4 IC50 Testosterone, probe substrate testosterone

## COCCOCCOCCOCCOCCOC(=O)NC(C(=O)NC(Cc1ccccc1)C(O)CN(Cc1ccc(-c2ccccn2)cc1)NC(=O)C(NC(=O)OC)C(C)(C)C)C(C)(C)C (stereo not shown) [mono-mPEG5-Atazanavir]
[1]
  IC50: 0.00291 µM
[2]
  EC50: 0.001 ± 0.0006 µM
[3]
  EC50: 0.0566 ± 0.0122 µM
[4]
  TC50: 120.8 µM
[5]
  Efflux ratio (B→A/A→B): 88
  A→B, ×10^−6: 0.12 cm/s
[6]
  CLint ± SEM: 13.8 ± 0.00163 μL/min/10^6 cells
  t1/2: 1.67 h
[7]
  t½: 0.96 h
[8]
  Clint: 93.0 μL/min/mg protein
  t1/2: 0.248 h
[9]
  Clint: 175 μL/min/mg protein
  t½: 0.96 h
[10]
  Dog Plasma Protein Binding Fu ± SD: 0.695 ± 0.118
[11]; 10 μM
  Mean % inhibition ± SEM (Block of hERG at 0.1 Hz): 11.2 ± 1.4%
[11]; 30 μM
  Mean % inhibition ± SEM (Block of hERG at 0.1 Hz): 26.3 ± 2.9%
[11]; 100 μM
  Mean % inhibition ± SEM (Block of hERG at 0.1 Hz): 43.8 ± 3.9%
[11]
  IC50: > 100 µM
[12]
  IC50: 23.7 µM
[13]; [15]
  IC50: 9.35 µM
[13]; [16]
  IC50: > 25 µM
[14]
  IC50: 22.2 µM

## COCCOCCOCCOCCOCCOCCOC(=O)NC(C(=O)NC(Cc1ccccc1)C(O)CN(Cc1ccc(-c2ccccn2)cc1)NC(=O)C(NC(=O)OC)C(C)(C)C)C(C)(C)C (stereo not shown) [mono-mPEG6-Atazanavir]
[1]
  IC50: 0.00131 µM
[3]
  EC50: 0.0433 ± 0.0204 µM
[4]
  TC50: 130.2 µM
[5]
  Efflux ratio (B→A/A→B): 68
  A→B, ×10^−6: 0.11 cm/s
[6]
  CLint ± SEM: 0.245 ± 0.000245 μL/min/10^6 cells
  t1/2: 94.33 h
[7]
  t½: 1.73 h
[8]
  Clint: 67.1 μL/min/mg protein
  t1/2: 0.345 h
[9]
  Clint: 238 μL/min/mg protein
  t½: 1.73 h
[10]
  Dog Plasma Protein Binding Fu ± SD: 0.497 ± 0.0386
[11]; 10 μM
  Mean % inhibition ± SEM (Block of hERG at 0.1 Hz): 4.4 ± 0.4%
[11]; 30 μM
  Mean % inhibition ± SEM (Block of hERG at 0.1 Hz): 12.7 ± 1.3%
[11]; 100 μM
  Mean % inhibition ± SEM (Block of hERG at 0.1 Hz): 26.0 ± 1.0%
[11]
  IC50: > 100 µM
[12]
  IC50: > 25 µM
[13]; [15]
  IC50: 16.7 µM
[13]; [16]
  IC50: > 25 µM
[14]
  IC50: > 25 µM
